{
  "source": "patent US20030021795A1",
  "about": "“Use of coiled-coil structural scaffold to generate structure-specific peptides” (priority 2000, published 2003)",
  "key": {"[1]": {"experiment": "CD spectroscopy (helical content/conformation of peptides)", "format": "physicochemical", "conditions": "for conformation by CD in benign buffer: benign buffer (50 mM KH2PO4, 50 mM KCl, pH 7.0), absence of TFE", "procedure": "Circular dichroism (CD) spectroscopy was performed using a Jasco J-500C spectropolarimeter (Jasco, Easton, Md.) equipped with a Jasco DP-500N data processor. A 10-fold dilution of an ˜[…] stock solution of the disulfide-linked peptide was loaded into a 0.02 cm fused silica cell and ellipticity scanned from 190 to 250 nm. […] A Lauda water bath (model RMS, Brinkmann Instruments, Rexdale, Ont.) was used to control the temperature of the cell. CD spectra were the average of four scans obtained by collecting data at 0.1 nm intervals from 250 to 190 nm."}, "anti-Strep serum": {"system": "anti-Strep serum", "format": "binding, mouse"}, "[2]": {"experiment": "Thermal denaturation monitored by [θ]222", "format": "physicochemical", "source_text": "The stability of the peptides may be determined by thermal denaturation assays or chemical denaturation assays such as the guanidine chloride denaturation assay. Such assays are known to those skilled in the art. The stability of the peptides may also be indirectly assessed by inhibition ELISA, wherein the ability of a peptide to inhibit the interaction between an antigen and an antibody serves as an indicator of how stable the peptide is in assuming the necessary conformation to compete with the antigen for the antibody.\nIn order to determine the stability of CVX0270, a thermal denaturation study was undertaken."}, "[3]": {"system": "Streptococcus pneumoniae serotype 1", "format": "cell-based", "conditions": "antiserum Day 49; immunogen dose 20 μg"}, "[4]": {"system": "Coiled-Coil Strep Antigen", "experiment": "Isotyping ELISA of mouse serum antibodies after i.p. immunization", "format": "in vivo, Balb/c mice", "conditions": "immunogen dose 20 μg"}, "[5]": {"system": "Streptococcus pneumoniae serotype 3", "format": "cell-based", "conditions": "antiserum Day 49; immunogen dose 20 μg"}, "[6]": {"system": "Streptococcus pneumoniae serotype 5", "format": "cell-based", "conditions": "antiserum Day 49; immunogen dose 20 μg"}, "[7]": {"system": "Streptococcus pneumoniae serotypes (1, 3, and 5)", "experiment": "Opsonization assay with antiserum", "format": "cell-based"}, "[8]": {"system": "Coiled-Coil Strep Antigen (Strep-BSA coating antigen)", "format": "in vivo, Balb/c mice", "conditions": "for Murine Sera (Day 49) OD 405 nm, Strep-BSA coating antigen: immunogen dose 20 μg"}},
  "note": "Where two headings read alike, the source gives them in different places. Square brackets hold non-standard residues; d marks the D form. Ends that are not written are not given here. Nle = CCCC[C@H](N)C(=O)O",
  "data": [
    {"substance": "Acetyl-CN1eGEIEALKKKIEELSDKIDELEKEIK-amide [CVX0270]", "values": [
      {"measurement": "ratio of the molar ellipticity at 222 and 208 ([θ]222/[θ]208)", "setting": "[1]; benign conditions", "result": "greater than 1.02"},
      {"measurement": "conformation by CD under aqueous conditions", "setting": "[1]; benign conditions (50 mM KH2PO4, 100 mM KCl, pH 7.0)", "result": "highly helical and found predominantly in the coiled-coil conformation"},
      {"measurement": "molar ellipticity at 222 nm ([θ]222)", "setting": "[1]; benign conditions (50 mM KH2PO4, 100 mM KCl, pH 7.0), 20° C.", "result": "−29800"},
      {"measurement": "helical content", "setting": "[1]; benign conditions (50 mM KH2PO4, 100 mM KCl, pH 7.0), 20° C., versus theoretical [θ]222 −33900", "result": 88, "unit": "%"},
      {"measurement": "helical content", "setting": "[1]; in the presence of 50% TFE", "result": 101, "unit": "%"},
      {"measurement": "inhibition of anti-Strep serum binding (inhibition ELISA)", "setting": "anti-Strep serum", "result": "significant inhibition"},
      {"measurement": "stability in thermal denaturation experiment", "setting": "[2]", "result": "very stable"},
      {"measurement": "% of original helicity retained", "setting": "[2]; at 75° C.", "result": 77, "unit": "%"}
    ]},
    {"substance": "CN1eG IEELEKK ITELKQK IDALENQ IHRLEQE IKELDES (C[Nle]GIEELEKKITELKQKIDALENQIHRLEQEIKELDES) [test peptide]", "values": [
      {"measurement": "conformation by CD in benign buffer", "setting": "[1]", "result": "exists in helical form even in benign buffer"},
      {"measurement": "stability in thermal denaturation experiment", "setting": "[2]", "result": "much more stable than the native control"}
    ]},
    {"substance": "CN1eG LEEAEKK ATEAKQK VDALENQ VHRLEQE LKEIDES (C[Nle]GLEEAEKKATEAKQKVDALENQVHRLEQELKEIDES) [native control]", "values": [
      {"measurement": "conformation by CD in benign buffer", "setting": "[1]", "result": "needs the presence of TFE to form a helical structure"}
    ]},
    {"substance": "EEESDKKDEEDAEKAE [Strep #2]", "values": [
      {"measurement": "inhibition of anti-Strep serum binding (inhibition ELISA)", "setting": "anti-Strep serum", "result": "no inhibition"}
    ]},
    {"substance": "EIEALKKKIEELSDKIDELEKEIK [Strep #1]", "values": [
      {"measurement": "inhibition of anti-Strep serum binding (inhibition ELISA)", "setting": "anti-Strep serum", "result": "Inhibition was also seen"}
    ]},
    {"substance": "TT: unconjugated tetanus toxoid carrier protein", "values": [
      {"measurement": "Percent Reduction of CFU Type 1", "setting": "[3]", "result": 7, "unit": "%"},
      {"measurement": "Isotype IgG1", "setting": "[4]; sera day 6", "result": 0.06, "unit": "O.D. 405 nm"},
      {"measurement": "Isotype IgG2a", "setting": "[4]; sera day 6", "result": 0.02, "unit": "O.D. 405 nm"},
      {"measurement": "Isotype IgG2b", "setting": "[4]; sera day 6", "result": 0.01, "unit": "O.D. 405 nm"},
      {"measurement": "Isotype IgG3", "setting": "[4]; sera day 6", "result": 0.01, "unit": "O.D. 405 nm"},
      {"measurement": "Isotype IgG1", "setting": "[4]; sera day 14", "result": 0.05, "unit": "O.D. 405 nm"},
      {"measurement": "Isotype IgG2a", "setting": "[4]; sera day 14", "result": 0.00, "unit": "O.D. 405 nm"},
      {"measurement": "Isotype IgG2b", "setting": "[4]; sera day 14", "result": 0.00, "unit": "O.D. 405 nm"},
      {"measurement": "Isotype IgG3", "setting": "[4]; sera day 14", "result": 0.01, "unit": "O.D. 405 nm"},
      {"measurement": "Isotype IgG1", "setting": "[4]; sera day 35", "result": 0.08, "unit": "O.D. 405 nm"},
      {"measurement": "Isotype IgG2a", "setting": "[4]; sera day 35", "result": 0.01, "unit": "O.D. 405 nm"},
      {"measurement": "Isotype IgG2b", "setting": "[4]; sera day 35", "result": 0.01, "unit": "O.D. 405 nm"},
      {"measurement": "Isotype IgG3", "setting": "[4]; sera day 35", "result": 0.01, "unit": "O.D. 405 nm"},
      {"measurement": "Isotype IgG1", "setting": "[4]; sera day 49", "result": 0.44, "unit": "O.D. 405 nm"},
      {"measurement": "Isotype IgG2a", "setting": "[4]; sera day 49", "result": 0.03, "unit": "O.D. 405 nm"},
      {"measurement": "Isotype IgG2b", "setting": "[4]; sera day 49", "result": 0.02, "unit": "O.D. 405 nm"},
      {"measurement": "Isotype IgG3", "setting": "[4]; sera day 49", "result": 0.05, "unit": "O.D. 405 nm"},
      {"measurement": "Percent Reduction of CFU Type 3", "setting": "[5]", "result": 6, "unit": "%"},
      {"measurement": "Percent Reduction of CFU Type 5", "setting": "[6]", "result": 7, "unit": "%"},
      {"measurement": "reduction in colony forming units by antisera", "setting": "[7]", "result": "Little or no reduction in colony forming units"},
      {"measurement": "antibody titers to the Strep hapten", "setting": "[8]; 20 μg, 10 μg and 5 μg doses", "result": "did not elicit any antibodies"},
      {"measurement": "Murine Sera (Day 49) OD 405 nm, Strep-BSA coating antigen", "setting": "[8]; serum dilution 1:2000", "result": 0.11, "unit": "OD 405 nm"},
      {"measurement": "Murine Sera (Day 49) OD 405 nm, Strep-BSA coating antigen", "setting": "[8]; serum dilution 1:4000", "result": 0.04, "unit": "OD 405 nm"},
      {"measurement": "Murine Sera (Day 49) OD 405 nm, Strep-BSA coating antigen", "setting": "[8]; serum dilution 1:8000", "result": 0.01, "unit": "OD 405 nm"},
      {"measurement": "Murine Sera (Day 49) OD 405 nm, Strep-BSA coating antigen", "setting": "[8]; serum dilution 1:16000", "result": 0.06, "unit": "OD 405 nm"},
      {"measurement": "Murine Sera (Day 49) OD 405 nm, Strep-BSA coating antigen", "setting": "[8]; serum dilution 1:32000", "result": 0.00, "unit": "OD 405 nm"},
      {"measurement": "Murine Sera (Day 49) OD 405 nm, Strep-BSA coating antigen", "setting": "[8]; serum dilution 1:64000", "result": 0.00, "unit": "OD 405 nm"},
      {"measurement": "Murine Sera (Day 49) OD 405 nm, Strep-BSA coating antigen", "setting": "[8]; serum dilution 1:128000", "result": 0.00, "unit": "OD 405 nm"},
      {"measurement": "Murine Sera (Day 49) OD 405 nm, Strep-BSA coating antigen", "setting": "[8]; serum dilution 1:256000", "result": 0.00, "unit": "OD 405 nm"}
    ]}
  ]
}
